Columns and labels:
Format in all cases: cell-based
BRAF V600E = target: T1, BRAF V600E (Homo sapiens, UniProt P15056, V600E); experiment: BRAF HiBiT degradation assay, C-terminal HiBiT-tagged BRAF V600E A375 cells (clone 1F10), Nano-Glo HiBiT Lytic assay; conditions: A375 (BRAF V600E); for DC50: DC50 at 50%: fitted conc. at Y=50; for Dmax: A-375, percentage protein degraded at maximal compound effect relative to DMSO
T1 construct: endogenous C-terminal HiBiT fusion tag on BRAF V600E allele; endogenous in cells; host or cells: A375 clone 1F10 (CRISPR-Cas9 knock-in of the HiBiT tag; parental A375 from ATCC)
T1 sequence (P15056 whole entry V600E, the tested form may be a part): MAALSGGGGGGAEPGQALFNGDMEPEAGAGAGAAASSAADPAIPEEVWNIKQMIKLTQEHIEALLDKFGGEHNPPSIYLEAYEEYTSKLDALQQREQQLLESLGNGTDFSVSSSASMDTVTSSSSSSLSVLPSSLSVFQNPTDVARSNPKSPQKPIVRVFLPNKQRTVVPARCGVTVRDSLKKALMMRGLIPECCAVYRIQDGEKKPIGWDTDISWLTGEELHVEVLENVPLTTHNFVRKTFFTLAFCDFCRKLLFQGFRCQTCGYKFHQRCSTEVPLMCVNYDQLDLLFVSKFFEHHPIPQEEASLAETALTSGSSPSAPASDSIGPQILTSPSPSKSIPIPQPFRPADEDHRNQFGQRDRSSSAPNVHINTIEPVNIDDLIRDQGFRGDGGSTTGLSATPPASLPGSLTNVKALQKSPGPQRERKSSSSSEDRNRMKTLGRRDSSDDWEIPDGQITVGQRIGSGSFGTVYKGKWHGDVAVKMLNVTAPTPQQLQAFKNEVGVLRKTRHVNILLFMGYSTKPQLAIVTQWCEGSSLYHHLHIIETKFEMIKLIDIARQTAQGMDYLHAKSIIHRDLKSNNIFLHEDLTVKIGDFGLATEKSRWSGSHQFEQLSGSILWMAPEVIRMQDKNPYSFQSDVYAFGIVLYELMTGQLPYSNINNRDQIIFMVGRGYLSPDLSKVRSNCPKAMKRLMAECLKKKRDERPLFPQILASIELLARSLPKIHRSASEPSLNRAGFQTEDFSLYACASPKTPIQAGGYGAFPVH
Procedure, shortened: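 Using CRISPR-engineered A375 cells that carry a C-terminal HiBiT tag on endogenous BRAF V600E, remaining protein was quantified by lytic luminescence relative to DMSO-treated cells, with wildtype A375 as the background control. DC50 denotes the concentration giving 50% degradation.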

BRAF G466V = target: T2, BRAF G466V (Homo sapiens, UniProt P15056, G466V); experiment: BRAF HiBiT degradation assay, C-terminal HiBiT-tagged BRAF G466V overexpressed in HCT-116 BRAF−/− cells (clone 8), Nano-Glo HiBiT Lytic assay; conditions: BRAF G466V; for DC50: DC50 at 50%: fitted conc. at Y=50; for Dmax: HCT-116, percentage protein degraded at maximal compound effect relative to DMSO
T2 construct: Horizon Discovery (HCT-116 BRAF−/− cells); host or cells: HCT-116 BRAF−/− cells, clone 8, lentiviral transduction
T2 sequence (P15056 whole entry G466V): as the sequence (P15056 whole entry V600E, the tested form may be a part) above, with G466V, E600V counted along it
Procedure, shortened: (§1)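 Degradation assay in HCT-116 BRAF−/− cells carrying lentiviral HiBiT-tagged mutant BRAF. The readout is % protein remaining across 1 μM to 0.01 nM compound, and DC50 marks 50% remaining.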

BRAF G469A = target: T3, BRAF G469A (Homo sapiens, UniProt P15056, G469A); experiment: BRAF HiBiT degradation assay, C-terminal HiBiT-tagged BRAF G469A overexpressed in HCT-116 BRAF−/− cells (clone 34), Nano-Glo HiBiT Lytic assay; conditions: Class 2, BRAF G469A; for DC50: DC50 at 50%: fitted conc. at Y=50; for Dmax: HCT-116, percentage protein degraded at maximal compound effect relative to DMSO
T3 construct: Horizon Discovery (HCT-116 BRAF−/− cells); host or cells: HCT-116 BRAF−/− cells, clone 34, lentiviral transduction
T3 sequence (P15056 whole entry G469A): as the sequence (P15056 whole entry V600E, the tested form may be a part) above, with G469A, E600V counted along it
Procedure, shortened: as §1

BRAF D594G = target: T4, BRAF D594G (Homo sapiens, UniProt P15056, D594G); experiment: BRAF HiBiT degradation assay, C-terminal HiBiT-tagged BRAF D594G overexpressed in HCT-116 BRAF−/− cells (clone 63), Nano-Glo HiBiT Lytic assay; conditions: BRAF D594G; for DC50: DC50 at 50%: fitted conc. at Y=50; for Dmax: HCT-116, percentage protein degraded at maximal compound effect relative to DMSO
T4 construct: Horizon Discovery (HCT-116 BRAF−/− cells); host or cells: HCT-116 BRAF−/− cells, clone 63, lentiviral transduction
T4 sequence (P15056 whole entry D594G): as the sequence (P15056 whole entry V600E, the tested form may be a part) above, with D594G, E600V counted along it
Procedure, shortened: as §1

CCN(C)S(=O)(=O)Nc1cccc(-c2nc(C(C)(C)C)sc2-c2ccnc(Nc3ccc(N4CCN(C(=O)C5(C)CCN(c6ccc(C7CCC(=O)NC7=O)cn6)CC5)CC4)cn3)n2)c1F (racemic) [Compound 42, Rac-(3S)-3-[6-(4-{4-[6-({4-[2-tert-butyl-4-(3-{[ethyl(methyl)sulfamoyl]amino}-2-fluorophenyl)-1,3-thiazol-5-yl]pyrimidin-2-yl}amino)pyridin-3-yl]piperazine-1-carbonyl}-4-methylpiperidin-1-yl)pyridin-3-yl]piperidine-2,6-dione]
DC50 (BRAF V600E): < 10 nM | Dmax (BRAF V600E): > 70% | DC50 (BRAF G466V): > 500 nM | Dmax (BRAF G466V): < 30% | DC50 (BRAF G469A): > 500 nM | Dmax (BRAF G469A): < 30% | DC50 (BRAF D594G): > 500 nM | Dmax (BRAF D594G): 30 to 70%

CCN(C)S(=O)(=O)Nc1cccc(-c2nc(C)sc2-c2ccnc(Nc3ccc(N4CCN(CC5CCN(c6ccc(C7CCC(=O)NC7=O)cn6)CC5)CC4)cn3)n2)c1F (racemic) [Compound 43, Rac-(3S)-3-{6-[4-({4-[6-({4-[4-(3-{[ethyl(methyl)sulfamoyl]amino}-2-fluorophenyl)-2-methyl-1,3-thiazol-5-yl]pyrimidin-2-yl}amino)pyridin-3-yl]piperazin-1-yl}methyl)piperidin-1-yl]pyridin-3-yl}piperidine-2,6-dione]
DC50 (BRAF V600E): < 10 nM | Dmax (BRAF V600E): > 70% | DC50 (BRAF G466V): 10 to 50 nM | Dmax (BRAF G466V): 30 to 70% | DC50 (BRAF G469A): 10 to 50 nM | Dmax (BRAF G469A): 30 to 70% | DC50 (BRAF D594G): < 10 nM | Dmax (BRAF D594G): 30 to 70%

CCCS(=O)(=O)Nc1cccc(-c2nc(C)sc2-c2ccnc(Nc3ccc(C4CCN(C(=O)CC5CCN(c6ccc(NC7CCC(=O)NC7=O)cc6)CC5)CC4)cc3)n2)c1F (racemic) [Compound 44, Rac-N-{3-[5-(2-{[4-(1-{2-[1-(4-{[(3R)-2,6-dioxopiperidin-3-yl]amino}phenyl)piperidin-4-yl]acetyl}piperidin-4-yl)phenyl]amino}pyrimidin-4-yl)-2-methyl-1,3-thiazol-4-yl]-2-fluorophenyl}propane-1-sulfonamide]
DC50 (BRAF V600E): < 10 nM | Dmax (BRAF V600E): > 70% | DC50 (BRAF G466V): > 500 nM | Dmax (BRAF G466V): < 30% | DC50 (BRAF G469A): > 500 nM | Dmax (BRAF G469A): < 30% | DC50 (BRAF D594G): > 500 nM | Dmax (BRAF D594G): < 30%

CCCS(=O)(=O)Nc1cccc(-c2nc(C(C)(C)C)sc2-c2ccnc(Nc3ccc(N4CCN(CC5CCN(c6ccc(C7CCC(=O)NC7=O)cn6)CC5)CC4)c(F)c3)n2)c1F (racemic) [Compound 45, Rac-N-[3-(2-tert-butyl-5-{2-[(4-{4-[(1-{5-[(3R)-2,6-dioxopiperidin-3-yl]pyridin-2-yl}piperidin-4-yl)methyl]piperazin-1-yl}-3-fluorophenyl)amino]pyrimidin-4-yl}-1,3-thiazol-4-yl)-2-fluorophenyl]propane-1-sulfonamide]
DC50 (BRAF V600E): 10 to 50 nM | Dmax (BRAF V600E): > 70% | DC50 (BRAF G466V): < 10 nM | Dmax (BRAF G466V): > 70% | DC50 (BRAF G469A): > 500 nM | Dmax (BRAF G469A): 30 to 70% | DC50 (BRAF D594G): 10 to 50 nM | Dmax (BRAF D594G): 30 to 70%

CCCS(=O)(=O)Nc1cccc(-c2nc(C(C)(C)C)sc2-c2ccnc(Nc3ccc(N4CCN(C(=O)CC5CCN(c6ccc(NC7CCC(=O)NC7=O)cc6)CC5)CC4)c(F)c3)n2)c1F (racemic) [Compound 46, Rac-N-{3-[2-tert-butyl-5-(2-{[4-(4-{2-[1-(4-{[(3R)-2,6-dioxopiperidin-3-yl]amino}phenyl)piperidin-4-yl]acetyl}piperazin-1-yl)-3-fluorophenyl]amino}pyrimidin-4-yl)-1,3-thiazol-4-yl]-2-fluorophenyl}propane-1-sulfonamide]
DC50 (BRAF V600E): < 10 nM | Dmax (BRAF V600E): > 70% | DC50 (BRAF G466V): < 10 nM | Dmax (BRAF G466V): 30 to 70% | DC50 (BRAF G469A): > 500 nM | Dmax (BRAF G469A): 30 to 70% | DC50 (BRAF D594G): 50 to 500 nM | Dmax (BRAF D594G): 30 to 70%

CCCS(=O)(=O)Nc1cccc(-c2nc(C(C)(C)C)sc2-c2ccnc(Nc3ccc(N4CCN(CC5CCN(c6ccc(C7CCC(=O)NC7=O)cn6)CC5)CC4)cc3)n2)c1F (racemic) [Compound 47, Rac-N-[3-(2-tert-butyl-5-{2-[(4-{4-[(1-{5-[(3R)-2,6-dioxopiperidin-3-yl]pyridin-2-yl}piperidin-4-yl)methyl]piperazin-1-yl}phenyl)amino]pyrimidin-4-yl}-1,3-thiazol-4-yl)-2-fluorophenyl]propane-1-sulfonamide]
DC50 (BRAF V600E): < 10 nM | Dmax (BRAF V600E): > 70% | DC50 (BRAF G466V): < 10 nM | Dmax (BRAF G466V): > 70% | DC50 (BRAF G469A): > 500 nM | Dmax (BRAF G469A): 30 to 70% | DC50 (BRAF D594G): 10 to 50 nM | Dmax (BRAF D594G): 30 to 70%

CCCS(=O)(=O)Nc1cccc(-c2nc(C(C)(C)C)sc2-c2ccnc(Nc3ccc(N4CCN(C(=O)CC5CCN(c6ccc(C7CCC(=O)NC7=O)cn6)CC5)CC4)c(F)c3)n2)c1F (racemic) [Compound 48, Rac-N-[3-(2-tert-butyl-5-{2-[(4-{4-[2-(1-{5-[(3R)-2,6-dioxopiperidin-3-yl]pyridin-2-yl}piperidin-4-yl)acetyl]piperazin-1-yl}-3-fluorophenyl)amino]pyrimidin-4-yl}-1,3-thiazol-4-yl)-2-fluorophenyl]propane-1-sulfonamide]
DC50 (BRAF V600E): < 10 nM | Dmax (BRAF V600E): > 70% | DC50 (BRAF G466V): > 500 nM | Dmax (BRAF G466V): < 30% | DC50 (BRAF G469A): > 500 nM | Dmax (BRAF G469A): < 30% | DC50 (BRAF D594G): > 500 nM | Dmax (BRAF D594G): 30 to 70%

CCCS(=O)(=O)Nc1cccc(-c2nc(C(C)(C)C)sc2-c2ccnc(Nc3ccc(N4CCN(C(=O)[C@@H]5CCN(c6ccc([C@H]7CCC(=O)NC7=O)cn6)C5)CC4)c(F)c3)n2)c1F (racemic) [Compound 49, Rac-N-(3-(2-(tert-butyl)-5-(2-((4-(4-((R)-1-(5-((R)-2,6-dioxopiperidin-3-yl)pyridin-2-yl)pyrrolidine-3-carbonyl)piperazin-1-yl)-3-fluorophenyl)amino)pyrimidin-4-yl)thiazol-4-yl)-2-fluorophenyl)propane-1-sulfonamide]
DC50 (BRAF V600E): < 10 nM | Dmax (BRAF V600E): > 70% | DC50 (BRAF G466V): > 500 nM | Dmax (BRAF G466V): 30 to 70% | DC50 (BRAF G469A): > 500 nM | Dmax (BRAF G469A): 30 to 70% | DC50 (BRAF D594G): > 500 nM | Dmax (BRAF D594G): 30 to 70%

CCCS(=O)(=O)Nc1cccc(-c2nc(C(C)(C)C)sc2-c2ccnc(Nc3ccc(N4CCN(C(=O)CN5CCc6cc(C7CCC(=O)NC7=O)ccc6C5)CC4)c(F)c3)n2)c1F (racemic) [Compound 51, Rac-N-(3-{2-tert-butyl-5-[2-({4-[4-(2-{6-[(3R)-2,6-dioxopiperidin-3-yl]-1,2,3,4-tetrahydroisoquinolin-2-yl}acetyl)piperazin-1-yl]-3-fluorophenyl}amino)pyrimidin-4-yl]-1,3-thiazol-4-yl}-2-fluorophenyl)propane-1-sulfonamide]
DC50 (BRAF V600E): < 10 nM | Dmax (BRAF V600E): > 70% | DC50 (BRAF G466V): 50 to 500 nM | Dmax (BRAF G466V): 30 to 70% | DC50 (BRAF G469A): > 500 nM | Dmax (BRAF G469A): 30 to 70% | DC50 (BRAF D594G): 50 to 500 nM | Dmax (BRAF D594G): 30 to 70%

CCCS(=O)(=O)Nc1cccc(-c2nc(C(C)(C)C)sc2-c2ccnc(Nc3ccc(N4CCN(C(=O)CC5(O)CCN(c6ccc(NC7CCC(=O)NC7=O)cc6F)CC5)CC4)c(F)c3)n2)c1F (racemic) [Compound 52, Rac-N-{3-[2-tert-butyl-5-(2-{[4-(4-{2-[1-(4-{[(3R)-2,6-dioxopiperidin-3-yl]amino}-2-fluorophenyl)-4-hydroxypiperidin-4-yl]acetyl}piperazin-1-yl)-3-fluorophenyl]amino}pyrimidin-4-yl)-1,3-thiazol-4-yl]-2-fluorophenyl}propane-1-sulfonamide]
DC50 (BRAF V600E): < 10 nM | Dmax (BRAF V600E): > 70% | DC50 (BRAF G466V): > 500 nM | Dmax (BRAF G466V): < 30% | DC50 (BRAF G469A): > 500 nM | Dmax (BRAF G469A): < 30% | DC50 (BRAF D594G): > 500 nM | Dmax (BRAF D594G): < 30%

CCN(C)S(=O)(=O)Nc1cccc(-c2nc(C(C)(C)C)sc2-c2ccnc(Nc3ccc(N4CCN(C(=O)C5CCN(c6ccc(C7CCC(=O)NC7=O)cn6)CC5)CC4)cn3)n2)c1F (racemic) [Compound 56, Rac-(3R)-3-[6-(4-{4-[6-({4-[2-tert-butyl-4-(3-{[ethyl(methyl)sulfamoyl]amino}-2-fluorophenyl)-1,3-thiazol-5-yl]pyrimidin-2-yl}amino)pyridin-3-yl]piperazine-1-carbonyl}piperidin-1-yl)pyridin-3-yl]piperidine-2,6-dione]
DC50 (BRAF V600E): < 10 nM | Dmax (BRAF V600E): > 70% | DC50 (BRAF G466V): < 10 nM | Dmax (BRAF G466V): 30 to 70% | DC50 (BRAF G469A): 10 to 50 nM | Dmax (BRAF G469A): 30 to 70% | DC50 (BRAF D594G): < 10 nM | Dmax (BRAF D594G): 30 to 70%

— patent US20260317324A1, “BIFUNCTIONAL COMPOUNDS FOR DEGRADING BRAF VIA UBIQUITIN PROTEOSOME PATHWAY” (Nurix Therapeutics, Inc., priority 2023, published 2026)
